In patent publication US20150307520A1, “NOVEL HETEROARYL AND HETEROCYCLE COMPOUNDS, COMPOSITIONS AND METHODS THEREOF” (HUTCHISON MEDIPHARMA LIMITED, priority 2012, published 2015):

What was measured:
Assay type in all cases: biochemical
[1] = biological target: p110γ (Homo sapiens, UniProt P48736); assay: Transcreener KINASE Assay, kinase inhibition of p110γ; conditions: for PI3Kγ IH % @ 1 uM: 1 uM test compound; for IC50: read-out: PI3Kγ IC50
Procedure, shortened: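 FP read-out: far-red competitive immunoassay sensing ADP produced by recombinant p110/p85 or p110γ enzyme. Reaction 80 min RT, then detection mix 60 min RT. IC50 from curve fit.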

[2] = biological target: p110β/p85α (Homo sapiens, UniProt P42338); assay: Transcreener KINASE Assay, kinase inhibition of p110β/p85α; conditions: for PI3Kβ IH % @ 1 uM: 1 uM test compound; for IC50: read-out: PI3Kβ IC50
Chain of p110β/p85α (P42338 whole entry): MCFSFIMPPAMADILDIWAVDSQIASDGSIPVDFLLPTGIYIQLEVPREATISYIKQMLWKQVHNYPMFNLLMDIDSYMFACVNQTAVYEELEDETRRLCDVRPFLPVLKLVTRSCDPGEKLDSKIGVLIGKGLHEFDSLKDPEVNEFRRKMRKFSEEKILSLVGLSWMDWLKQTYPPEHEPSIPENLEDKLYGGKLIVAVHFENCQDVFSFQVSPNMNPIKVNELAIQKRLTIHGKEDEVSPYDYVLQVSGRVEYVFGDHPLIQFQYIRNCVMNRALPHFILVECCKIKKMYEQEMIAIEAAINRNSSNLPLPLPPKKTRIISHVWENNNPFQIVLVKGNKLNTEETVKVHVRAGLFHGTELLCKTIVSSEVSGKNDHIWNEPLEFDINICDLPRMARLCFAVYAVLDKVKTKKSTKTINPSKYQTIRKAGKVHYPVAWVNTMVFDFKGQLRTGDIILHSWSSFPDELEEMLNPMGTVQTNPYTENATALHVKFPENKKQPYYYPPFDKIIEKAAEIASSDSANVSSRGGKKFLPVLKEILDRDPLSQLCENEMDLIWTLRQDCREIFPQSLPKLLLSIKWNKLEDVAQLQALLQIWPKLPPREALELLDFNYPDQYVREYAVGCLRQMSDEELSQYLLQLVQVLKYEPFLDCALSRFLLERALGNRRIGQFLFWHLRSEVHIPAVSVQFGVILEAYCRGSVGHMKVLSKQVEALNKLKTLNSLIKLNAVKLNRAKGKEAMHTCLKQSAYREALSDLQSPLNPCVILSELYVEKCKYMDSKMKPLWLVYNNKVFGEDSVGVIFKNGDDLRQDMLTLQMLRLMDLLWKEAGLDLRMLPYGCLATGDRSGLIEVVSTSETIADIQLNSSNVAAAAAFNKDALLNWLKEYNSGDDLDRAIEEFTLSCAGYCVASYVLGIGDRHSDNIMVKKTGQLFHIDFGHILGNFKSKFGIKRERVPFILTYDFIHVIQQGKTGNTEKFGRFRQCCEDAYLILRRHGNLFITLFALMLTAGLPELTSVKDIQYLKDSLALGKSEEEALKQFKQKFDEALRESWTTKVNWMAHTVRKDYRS
Chain of p110β/p85α (P27986 2-724 partner): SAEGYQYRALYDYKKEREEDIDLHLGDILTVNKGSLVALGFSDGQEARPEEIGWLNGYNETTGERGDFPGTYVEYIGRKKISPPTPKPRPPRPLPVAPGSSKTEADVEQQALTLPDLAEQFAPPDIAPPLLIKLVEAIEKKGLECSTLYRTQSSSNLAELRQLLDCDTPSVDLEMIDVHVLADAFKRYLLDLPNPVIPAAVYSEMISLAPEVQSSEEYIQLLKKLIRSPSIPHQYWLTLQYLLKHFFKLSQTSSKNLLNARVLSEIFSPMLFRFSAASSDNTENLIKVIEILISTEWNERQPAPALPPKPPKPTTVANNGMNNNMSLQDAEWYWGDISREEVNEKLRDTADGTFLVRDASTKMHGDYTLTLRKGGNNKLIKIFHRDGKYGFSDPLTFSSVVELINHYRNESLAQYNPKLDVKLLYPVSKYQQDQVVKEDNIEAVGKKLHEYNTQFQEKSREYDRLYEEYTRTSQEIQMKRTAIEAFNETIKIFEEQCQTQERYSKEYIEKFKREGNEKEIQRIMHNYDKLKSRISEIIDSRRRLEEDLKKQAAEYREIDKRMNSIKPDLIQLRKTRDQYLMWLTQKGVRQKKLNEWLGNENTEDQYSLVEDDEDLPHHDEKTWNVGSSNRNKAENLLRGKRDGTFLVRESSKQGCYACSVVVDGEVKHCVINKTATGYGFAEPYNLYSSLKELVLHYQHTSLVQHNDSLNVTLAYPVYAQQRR
Procedure, shortened: (§1)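 ADP production was read by fluorescence polarization immunoassay (60 min detection step) after an 80 min room-temperature reaction of p110/p85α enzyme, compound in 2% DMSO, and PIP2/ATP solution (30 uM/10 uM as added) in HEPES buffer with MgCl2 and DTT. IC50s came from inhibition versus the DMSO control.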

[3] = biological target: p110δ/p85α (Homo sapiens, UniProt O00329); assay: Transcreener KINASE Assay, kinase inhibition of p110δ/p85α; conditions: for PI3Kδ IH % @ 1 uM: 1 uM test compound; for IC50: read-out: PI3Kδ IC50
Chain of p110δ/p85α (O00329 whole entry): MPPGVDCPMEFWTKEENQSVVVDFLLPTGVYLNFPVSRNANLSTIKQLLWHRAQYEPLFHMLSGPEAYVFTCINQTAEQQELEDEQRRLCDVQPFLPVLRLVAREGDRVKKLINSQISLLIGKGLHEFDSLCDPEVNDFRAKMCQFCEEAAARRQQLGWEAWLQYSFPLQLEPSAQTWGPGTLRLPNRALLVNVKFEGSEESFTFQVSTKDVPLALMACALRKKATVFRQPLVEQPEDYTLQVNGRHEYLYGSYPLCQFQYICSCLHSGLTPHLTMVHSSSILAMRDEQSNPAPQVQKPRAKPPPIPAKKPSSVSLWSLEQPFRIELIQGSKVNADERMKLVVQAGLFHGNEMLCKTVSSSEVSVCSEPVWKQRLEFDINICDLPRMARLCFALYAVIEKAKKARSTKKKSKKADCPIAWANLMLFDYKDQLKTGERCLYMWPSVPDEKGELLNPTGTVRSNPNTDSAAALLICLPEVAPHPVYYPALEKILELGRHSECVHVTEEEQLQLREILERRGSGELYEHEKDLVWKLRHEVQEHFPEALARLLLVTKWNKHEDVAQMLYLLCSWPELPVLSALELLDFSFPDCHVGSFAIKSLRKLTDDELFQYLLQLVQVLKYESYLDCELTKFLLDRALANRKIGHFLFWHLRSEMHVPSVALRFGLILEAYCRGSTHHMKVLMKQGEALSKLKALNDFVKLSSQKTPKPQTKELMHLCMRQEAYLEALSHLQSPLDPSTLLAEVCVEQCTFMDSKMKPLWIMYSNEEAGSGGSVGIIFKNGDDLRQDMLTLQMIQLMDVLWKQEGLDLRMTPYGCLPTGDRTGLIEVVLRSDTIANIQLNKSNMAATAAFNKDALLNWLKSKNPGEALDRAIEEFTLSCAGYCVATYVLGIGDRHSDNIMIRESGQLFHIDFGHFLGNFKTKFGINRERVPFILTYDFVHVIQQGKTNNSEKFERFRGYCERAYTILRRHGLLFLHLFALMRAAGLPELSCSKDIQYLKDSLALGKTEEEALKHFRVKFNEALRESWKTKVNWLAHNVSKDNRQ
Chain of p110δ/p85α (P27986 whole entry partner): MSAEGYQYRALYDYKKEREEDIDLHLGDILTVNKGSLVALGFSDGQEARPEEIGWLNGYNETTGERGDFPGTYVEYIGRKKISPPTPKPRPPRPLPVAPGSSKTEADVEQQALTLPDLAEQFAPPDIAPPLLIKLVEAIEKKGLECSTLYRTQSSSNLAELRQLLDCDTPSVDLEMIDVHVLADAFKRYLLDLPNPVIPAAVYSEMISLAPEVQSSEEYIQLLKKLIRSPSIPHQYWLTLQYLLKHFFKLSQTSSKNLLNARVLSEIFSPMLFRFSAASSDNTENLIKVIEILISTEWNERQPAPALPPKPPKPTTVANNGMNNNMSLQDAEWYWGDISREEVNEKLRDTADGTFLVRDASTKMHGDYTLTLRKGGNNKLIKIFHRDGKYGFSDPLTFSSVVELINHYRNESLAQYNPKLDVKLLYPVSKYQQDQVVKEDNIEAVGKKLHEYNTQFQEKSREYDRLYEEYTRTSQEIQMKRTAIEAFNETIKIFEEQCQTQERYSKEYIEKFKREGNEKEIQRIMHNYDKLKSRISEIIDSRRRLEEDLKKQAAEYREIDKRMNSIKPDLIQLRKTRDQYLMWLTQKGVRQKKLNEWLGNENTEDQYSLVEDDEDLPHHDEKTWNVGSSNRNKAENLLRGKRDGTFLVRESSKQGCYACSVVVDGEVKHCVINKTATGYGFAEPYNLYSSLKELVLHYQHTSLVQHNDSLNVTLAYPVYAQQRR
Procedure, shortened: as §1

Chain of p110γ (P48736 whole entry): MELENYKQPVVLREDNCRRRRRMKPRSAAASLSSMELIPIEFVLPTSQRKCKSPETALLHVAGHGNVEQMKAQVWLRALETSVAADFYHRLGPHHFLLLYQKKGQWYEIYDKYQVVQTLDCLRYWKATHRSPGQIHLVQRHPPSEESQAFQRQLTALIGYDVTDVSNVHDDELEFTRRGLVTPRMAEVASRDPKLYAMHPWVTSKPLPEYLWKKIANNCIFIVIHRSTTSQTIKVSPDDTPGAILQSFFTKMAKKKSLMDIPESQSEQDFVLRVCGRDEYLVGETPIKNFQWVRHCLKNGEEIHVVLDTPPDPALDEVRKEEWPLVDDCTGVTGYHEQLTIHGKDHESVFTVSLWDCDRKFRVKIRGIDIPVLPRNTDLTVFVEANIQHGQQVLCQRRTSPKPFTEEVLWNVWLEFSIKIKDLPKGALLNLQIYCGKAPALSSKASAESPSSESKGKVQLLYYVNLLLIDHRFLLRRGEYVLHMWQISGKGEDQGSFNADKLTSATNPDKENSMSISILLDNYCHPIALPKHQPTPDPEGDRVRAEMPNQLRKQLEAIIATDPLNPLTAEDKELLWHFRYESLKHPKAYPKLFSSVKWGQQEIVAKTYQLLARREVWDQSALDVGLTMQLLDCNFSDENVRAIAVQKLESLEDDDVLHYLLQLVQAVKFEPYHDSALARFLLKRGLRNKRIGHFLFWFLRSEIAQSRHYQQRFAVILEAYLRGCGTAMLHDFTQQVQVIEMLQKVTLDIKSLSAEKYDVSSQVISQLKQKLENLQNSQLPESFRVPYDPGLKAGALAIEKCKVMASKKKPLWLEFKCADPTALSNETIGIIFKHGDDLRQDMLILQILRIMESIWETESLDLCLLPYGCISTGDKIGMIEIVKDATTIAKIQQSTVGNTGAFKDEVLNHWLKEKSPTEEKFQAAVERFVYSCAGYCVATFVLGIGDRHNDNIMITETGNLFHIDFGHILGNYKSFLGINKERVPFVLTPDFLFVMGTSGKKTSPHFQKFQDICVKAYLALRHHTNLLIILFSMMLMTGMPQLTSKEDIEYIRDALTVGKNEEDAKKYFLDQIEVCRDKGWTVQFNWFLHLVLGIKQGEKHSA

C[C@H]1CN(c2nc(N)ncc2Cl)[C@@H]1c1nn2ccc(F)c2c(=O)n1-c1ccccc1 [Compound 464]
PI3Kγ IH % @ 1 uM [1]: 80.6%
IC50 [1]: 138 nM
PI3Kβ IH % @ 1 uM [2]: 33.0%
PI3Kδ IH % @ 1 uM [3]: >100%
IC50 [3]: 5 nM

C[C@H]1CN(c2nc(N)ncc2Cl)[C@@H]1c1nn2ccc(Cl)c2c(=O)n1-c1ccccc1 [Compound 465]
PI3Kγ IH % @ 1 uM [1]: 94.1%
IC50 [1]: 23 nM
PI3Kβ IH % @ 1 uM [2]: 45.0%
PI3Kδ IH % @ 1 uM [3]: >100%
IC50 [3]: 8 nM

CC1(C)CN(c2nc(N)ncc2Cl)C1c1nn2ccc(Cl)c2c(=O)n1-c1ccccc1 (stereo not drawn) [Compound 466]
PI3Kγ IH % @ 1 uM [1]: 93.9%
IC50 [1]: 48 nM
PI3Kβ IH % @ 1 uM [2]: 45.4%
PI3Kδ IH % @ 1 uM [3]: >100%
IC50 [3]: 20 nM

C[C@H]1CN(c2ncnc3[nH]cc(C#N)c23)[C@@H]1c1nn2ccc(Cl)c2c(=O)n1-c1ccc(F)cc1 [Compound 468]
PI3Kγ IH % @ 1 uM [1]: 96.6%
PI3Kβ IH % @ 1 uM [2]: 74.0%
IC50 [2]: 311 nM
PI3Kδ IH % @ 1 uM [3]: >100%
IC50 [3]: 20 nM

Cc1nc(N)nc(N2C[C@H](C)[C@H]2c2nn3ccc(Cl)c3c(=O)n2-c2ccccc2)n1 [Compound 469]
PI3Kγ IH % @ 1 uM [1]: 90.5%
IC50 [1]: 51 nM
PI3Kβ IH % @ 1 uM [2]: 47.1%
PI3Kδ IH % @ 1 uM [3]: >100%
IC50 [3]: 19 nM

CC(=O)c1cnc(N)nc1N1CC[C@@H]1c1nn2ccc(Cl)c2c(=O)n1-c1ccccc1 [Compound 470]
PI3Kγ IH % @ 1 uM [1]: 36.6%
PI3Kβ IH % @ 1 uM [2]: 4.9%
PI3Kδ IH % @ 1 uM [3]: 27.8%

CC(=O)c1cnc(N)nc1N1CCC1c1nn2ccc(Cl)c2c(=O)n1-c1ccccn1 (stereo not drawn) [Compound 474]
PI3Kγ IH % @ 1 uM [1]: 98.2%
IC50 [1]: 9 nM
PI3Kβ IH % @ 1 uM [2]: 48.3%
PI3Kδ IH % @ 1 uM [3]: 99.3%
IC50 [3]: 7 nM

C[C@H]1CN(c2ncnc3[nH]cc(C#N)c23)[C@@H]1c1nn2ccc(Cl)c2c(=O)n1-c1ccccn1 [Compound 476]
PI3Kγ IH % @ 1 uM [1]: 89.5%
IC50 [1]: 24 nM
PI3Kβ IH % @ 1 uM [2]: 78.1%
IC50 [2]: 79 nM
PI3Kδ IH % @ 1 uM [3]: 95.9%
IC50 [3]: 1 nM

C[C@H]1CN(c2nc(N)ncc2C#N)[C@@H]1c1nn2ccc(Cl)c2c(=O)n1-c1ccccn1 [Compound 477]
PI3Kγ IH % @ 1 uM [1]: 76.1%
IC50 [1]: 351 nM
PI3Kβ IH % @ 1 uM [2]: 31.7%
PI3Kδ IH % @ 1 uM [3]: >100%
IC50 [3]: 58 nM

Cc1nc(N)nc(N2C[C@H](C)[C@H]2c2nn3ccc(Cl)c3c(=O)n2-c2ccccn2)c1C#N [Compound 478]
PI3Kγ IH % @ 1 uM [1]: >100%
IC50 [1]: 3 nM
PI3Kβ IH % @ 1 uM [2]: 96.4%
IC50 [2]: 32 nM
PI3Kδ IH % @ 1 uM [3]: >100%
IC50 [3]: 1 nM

CC(=O)c1cnc(N)nc1N1CC[C@H]1c1nn2ccc(Cl)c2c(=O)n1-c1cccc(C)n1 [Compound 479]
PI3Kγ IH % @ 1 uM [1]: 94.7%
IC50 [1]: 120 nM
PI3Kβ IH % @ 1 uM [2]: 20.1%
PI3Kδ IH % @ 1 uM [3]: 91.6%
IC50 [3]: 10 nM

N#Cc1c(N)nc(N)nc1N1CCC1c1nn2ccc(Cl)c2c(=O)n1-c1ccccc1 (stereo not drawn) [Compound 482]
PI3Kγ IH % @ 1 uM [1]: >100%
IC50 [1]: 7 nM
PI3Kβ IH % @ 1 uM [2]: 91.9%
IC50 [2]: 266 nM
PI3Kδ IH % @ 1 uM [3]: >100%
IC50 [3]: 1 nM

CC(=O)c1cnc(N)nc1N1CC(C)(C)[C@H]1c1nn2ccc(Cl)c2c(=O)n1-c1ccccc1 [Compound 485, (S)-2-(1-(5-acetyl-2-aminopyrimidin-4-yl)-3,3-dimethylazetidin-2-yl)-5-chloro-3-phenylpyrrolo[2,1-f][1,2,4]triazin-4(3H)-one]
PI3Kγ IH % @ 1 uM [1]: 45.2%
PI3Kβ IH % @ 1 uM [2]: −2.1%
PI3Kδ IH % @ 1 uM [3]: >100%
IC50 [3]: 96 nM

N#Cc1c[nH]c2ncnc(N3CC[C@H]3c3nn4ccc(C(F)(F)F)c4c(=O)n3-c3ccccc3)c12 [Compound 488]
PI3Kγ IH % @ 1 uM [1]: 87.3%
IC50 [1]: 63 nM
PI3Kβ IH % @ 1 uM [2]: 29.1%
PI3Kδ IH % @ 1 uM [3]: 95.9%
IC50 [3]: 18 nM

C[C@H]1CN(c2nc(N)ncc2C#N)[C@@H]1c1nn2ccc(C(F)(F)F)c2c(=O)n1-c1ccccc1 [Compound 490]
PI3Kγ IH % @ 1 uM [1]: >100%
IC50 [1]: 15 nM
PI3Kβ IH % @ 1 uM [2]: 33.4%
PI3Kδ IH % @ 1 uM [3]: 96.6%
IC50 [3]: 54 nM

Cc1nc(N)nc(N2CC[C@H]2c2nn3ccc(C#N)c3c(=O)n2-c2ccccc2)c1C#N [Compound 497, (S)-2-(1-(2-amino-5-cyano-6-methylpyrimidin-4-yl)azetidin-2-yl)-4-oxo-3-phenyl-3,4-dihydropyrrolo[2,1-f][1,2,4]triazine-5-carbonitrile]
PI3Kγ IH % @ 1 uM [1]: 91.1%
IC50 [1]: 11 nM
PI3Kβ IH % @ 1 uM [2]: 67.6%
PI3Kδ IH % @ 1 uM [3]: >100%
IC50 [3]: 6 nM

Cc1nc(N)nc(N2C[C@H](C)[C@H]2c2nn3ccc(C#N)c3c(=O)n2-c2ccccc2)c1C#N [Compound 499]
PI3Kγ IH % @ 1 uM [1]: 96.0%
IC50 [1]: 5 nM
PI3Kβ IH % @ 1 uM [2]: 86.1%
IC50 [2]: 84 nM
PI3Kδ IH % @ 1 uM [3]: >100%
IC50 [3]: 2 nM

CC(=O)c1cnc(N)nc1N1C[C@H](C)[C@H]1c1nn2ccc(C#N)c2c(=O)n1-c1ccccc1 [Compound 500]
PI3Kγ IH % @ 1 uM [1]: 98.7%
IC50 [1]: 7 nM
PI3Kβ IH % @ 1 uM [2]: 71.5%
IC50 [2]: 674 nM
PI3Kδ IH % @ 1 uM [3]: 95.4%
IC50 [3]: 6 nM

C[C@H]1CN(c2nc(N)ncc2C#N)[C@@H]1c1nn2ccc(C#N)c2c(=O)n1-c1ccccc1 [Compound 501]
PI3Kγ IH % @ 1 uM [1]: >100%
PI3Kβ IH % @ 1 uM [2]: 24.0%
PI3Kδ IH % @ 1 uM [3]: 91.8%
IC50 [3]: 78 nM

Cc1nc(N)nc(N2CC[C@H]2c2nn3c(C)cc(Cl)c3c(=O)n2-c2ccccc2)c1C#N [Compound 502]
PI3Kγ IH % @ 1 uM [1]: 66.4%
PI3Kβ IH % @ 1 uM [2]: 33.6%
PI3Kδ IH % @ 1 uM [3]: 66.2%

CC(=O)c1cnc(N)nc1N1CC[C@H]1c1nn2c(C)cc(Cl)c2c(=O)n1-c1ccccc1 [Compound 503]
PI3Kγ IH % @ 1 uM [1]: 63.0%
PI3Kβ IH % @ 1 uM [2]: 6.2%
PI3Kδ IH % @ 1 uM [3]: 49.2%

C[C@H]1CN(c2nc(N)nc(N)c2C#N)C1c1nn2ccc(Cl)c2c(=O)n1-c1cccc(F)c1 (stereo partly drawn) [Compound 504]
PI3Kγ IH % @ 1 uM [1]: >100%
IC50 [1]: 2 nM
PI3Kβ IH % @ 1 uM [2]: 75.6%
IC50 [2]: 121 nM
PI3Kδ IH % @ 1 uM [3]: >100%
IC50 [3]: 2 nM
